Experimental data published in patent publication US9512152B2, “Phospholipid compound containing unsaturated fatty acid derivative having cyclopropane ring” (NISHIZAKI BIOINFORMATION RESEARCH INSTITUTE, priority 2013, dated 2016).

Legend:
PKCι = biological target: T1, PKCι (Homo sapiens, UniProt P41743); assay: Cell-free PKC assay; type: biochemical; details: 100 μM, FIG. 6
T1 sequence (P41743 1-596): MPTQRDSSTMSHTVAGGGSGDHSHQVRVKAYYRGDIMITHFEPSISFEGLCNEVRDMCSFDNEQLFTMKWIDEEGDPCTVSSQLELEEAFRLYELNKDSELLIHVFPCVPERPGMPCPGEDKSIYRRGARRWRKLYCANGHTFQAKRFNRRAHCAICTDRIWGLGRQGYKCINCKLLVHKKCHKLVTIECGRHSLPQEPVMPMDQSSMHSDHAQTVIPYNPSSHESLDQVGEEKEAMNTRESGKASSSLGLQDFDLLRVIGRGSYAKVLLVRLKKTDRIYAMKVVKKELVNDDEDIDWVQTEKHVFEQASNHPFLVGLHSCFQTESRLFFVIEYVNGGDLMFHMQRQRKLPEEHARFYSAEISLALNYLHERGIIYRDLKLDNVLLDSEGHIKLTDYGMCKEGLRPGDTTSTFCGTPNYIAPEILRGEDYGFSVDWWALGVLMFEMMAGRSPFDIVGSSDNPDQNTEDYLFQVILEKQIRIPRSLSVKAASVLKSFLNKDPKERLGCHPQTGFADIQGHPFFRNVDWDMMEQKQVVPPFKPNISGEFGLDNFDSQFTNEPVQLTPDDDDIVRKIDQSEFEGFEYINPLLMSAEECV
Experimental: (§1) PKC activity in a cell-free system was quantified by the method described in a previous report (Kanno T et al. J Lipid Res 2006; 47: 1146-1156). In short, synthesized PKC substrate peptide (10 μM) was reacted with various PKC isozymes in a medium containing 20 mM Tris-HCl (pH 7.5), 5 mM magnesium acetate, 10 μM ATP, and DCP-LA-phospholipid in the absence of phosphatidylserine and diacylglycerol at 30° C. for 5 min. A Ca^2+-free medium was used for novel PKC such as PKC-δ, -ε and the like, and a 100 μM CaCl2-containing medium was used for other PKC isozymes. They were loaded on reversed-phase HPLC (LC-10ATvp, Shimadzu Co., Kyoto, Japan), and the peaks of substrate peptide and new resultant products were measured at an absorbance of 214 nm. The areas of non-phosphorylated PKC substrate peptide and phosphorylated PKC substrate peptide were measured (total area corresponds to the concentration of PKC substrate peptide used in this Example), and the amount of the phosphorylated substrate peptide was calculated. The amount of the phosphorylated substrate peptide (pmol/1 min) per 1 min was used as an index of the PKC activity.

PKCζ = biological target: T2, PKCζ (Homo sapiens, UniProt Q05513); assay: Cell-free PKC assay; type: biochemical; details: 100 μM, FIG. 6
T2 sequence (Q05513 1-592): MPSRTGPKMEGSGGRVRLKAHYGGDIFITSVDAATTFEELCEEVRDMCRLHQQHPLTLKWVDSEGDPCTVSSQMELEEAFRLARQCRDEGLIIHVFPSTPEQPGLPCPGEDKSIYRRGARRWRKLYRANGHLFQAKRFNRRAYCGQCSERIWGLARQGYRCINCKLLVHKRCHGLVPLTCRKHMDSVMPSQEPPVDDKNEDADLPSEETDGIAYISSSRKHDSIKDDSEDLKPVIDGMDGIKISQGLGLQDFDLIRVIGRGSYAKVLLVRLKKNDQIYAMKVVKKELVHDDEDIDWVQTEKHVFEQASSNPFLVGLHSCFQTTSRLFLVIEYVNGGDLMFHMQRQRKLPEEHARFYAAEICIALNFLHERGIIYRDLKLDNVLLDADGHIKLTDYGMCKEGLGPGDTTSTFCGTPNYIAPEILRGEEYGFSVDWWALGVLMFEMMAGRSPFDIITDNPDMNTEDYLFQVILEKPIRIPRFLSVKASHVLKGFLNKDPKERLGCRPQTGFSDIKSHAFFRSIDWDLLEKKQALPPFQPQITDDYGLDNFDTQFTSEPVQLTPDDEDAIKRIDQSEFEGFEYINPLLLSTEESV
Experimental: as §1

PKC isozymes = assay: Cell-free PKC assay; type: biochemical; details: 100 μM, FIG. 5
Experimental: as §1

[1] = system: C57BL/KsJ-lepr db/lepr db mouse; assay: Glucose tolerance test in type 2 diabetes model mouse; type: in vivo; details: oral, 0.01-3 mg/kg, 30 min before glucose 2 g/kg, FIG. 10
Experimental: C57BL/KsJ-lepr^db/lepr^db mouse (female, 8-week-old) (CLEA Japan; Tokyo, Japan) was used. The glucose tolerance test was performed using the mouse starved for 12 hr. Glucose (2 g/ml/kg body weight) was administered by gavage, and the time point thereof was taken as 0 h. diDCP-LA-PE (0.01, 0.1, 1, 3 mg/kg), insulin (0.75 U/kg) or brine was orally administered 30 min before administration of glucose. The blood (10 μl) was collected from the tail vein at the time points of 0, 30, 60, and 90 min, and each plasma sample which was labeled with p-aminobenzylethylester and prepared from the obtained blood was loaded on high performance liquid chromatography (HPLC) system (LC-10ATvp; Shimadzu Co., Kyoto, Japan). The glucose concentration was calculated from a peak area/concentration analytical curve prepared using the standard glucose solution.

`CCCCCC1CC1CC1CC1CCCCCCCC(=O)OC[C@H](COP(=O)(O)OCCN)OC(=O)CCCCCCCC1CC1CC1CC1CCCCC` (stereo partly shown) [diDCP-LA-PE, 1,2-o-bis-[8-{2-(2-pentyl-cyclopropylmethyl)-cyclopropyl}-octanoyl]-sn-glycero-3-phosphatidylethanolamine] was tested, and the “PKCι activation, specificity” value (PKCι) was “specific activating agent of PKCι and PKCζ”, the “PKCζ activation, specificity” value (PKCζ) was “specific activating agent of PKCι and PKCζ” and the “PKC activation, all PKC isozymes” value (PKC isozymes) was “activates all PKC isozymes”. The “Decrease of blood glucose level” value [1] was “decrease the blood glucose level in a dose-dependent manner”.
